Reference: the supplement of paper PMC11208160

Assay: recombinant UMI read abundance after kanamycin selection (control-corrected) (log10(CPM+1)); higher = more efficient recombination; extreme values may be limits of the assay; sequences stand for … in AGTGCAGAGAAAATCGGCCAGTTTTCTCTGCCTGCAGTCCGCATGCCGTGGGACCCCTTGGGTTCTAACCTGTTGCCTAGATTTATGCAGCGGACTGCCTTTCTCCCAAAGTGATAAACCGG…AGGTTGGTTTCACT; site = the 11-nt donor
Procedure, shortened: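 Reported values are log10(CPM+1) from a pooled Escherichia coli screen of donor and donor-binding-loop pairs for the IS621 bridge recombinase. Selection used IPTG (0.07 mM) plus kanamycin, against unselected plating, each in two replicates. Recombinant UMIs were amplified across the donor–target junction, sequenced, converted to CPM, averaged over replicates and scaled by control-derived factors.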
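Further: IS621 bridge recombinase in Escherichia coli cells against a fixed T5 target plasmid.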

| Sequence | recombinant UMI read abundance (log10) |
| --- | --- |
| CGTTCGACATGGACCGGTTTTCCCGGTAATCCGTATTTGTT (site CGATCGACTAA) | 0.0104 |
| CTAGTATCATGGACCGGTTTTCCCGGTAATCCGTATTTGAC (site CTAGGATCTGC) | 0 |
| GATATAGCATGGACCGGTTTTCCCGGTAATCCGTATTTGGT (site GATATAGCTAC) | 1.08 |
| TAGGAACCATGGACCGGTTTTCCCGGTAATCCGTATTTGCG (site TAGGAAGCTCG) | 0.00966 |
| ACAGGATCATGGACCGGTTTTCCCGGTAATCCGTATTTGAA (site ACAGGATCTTT) | 2.93 |
| GTTGTTCCATGGACCGGTTTTCCCGGTAATCCGTATTTGTT (site GTTGTTCCTAG) | 0 |
| GGGTAATCATGGACCGGTTTTCCCGGTAATCCGTATTTGAT (site GGGTAATCTAT) | 3.04 |
| CCCGATCCATGGACCGGTTTTCCCGGTAATCCGTATTTGCA (site CCCGCTCCTTG) | 0 |
| AATTAAGCATGGACCGGTTTTCCCGGTAATCCGTATTTGGA (site AATTAAGCTTC) | 0.894 |
| CCTGGTCCATGGACCGGTTTTCCCGGTAATCCGTATTTGCA (site CCAGGTCCTTG) | 0 |
| GGAGTGACATGGACCGGTTTTCCCGGTAATCCGTATTTGGT (site GGAGTGCCTAC) | 0.00536 |
| GGCCTTTCATGGACCGGTTTTCCCGGTAATCCGTATTTGAC (site TGCCTTTCTGT) | 0 |
| AGGACGACATGGACCGGTTTTCCCGGTAATCCGTATTTGGA (site AGGACGACTTC) | 0.813 |
| TGATCGACATGGACCGGTTTTCCCGGTAATCCGTATTTGTT (site TGATCGACTAA) | 0.0254 |
| GGAAAGACATGGACCGGTTTTCCCGGTAATCCGTATTTGCC (site GGAGAGACTGG) | 0.347 |
| CTAGTATCATGGACCGGTTTTCCCGGTAATCCGTATTTGAC (site TTAGTATCTGT) | 1.71 |
| TCTGCACCATGGACCGGTTTTCCCGGTAATCCGTATTTGGA (site TCTGCACCTTC) | 0.0216 |
| CTTCTCGCATGGACCGGTTTTCCCGGTAATCCGTATTTGTA (site CTTCTCGCTTA) | 1.29 |
| CGGTGGCCATGGACCGGTTTTCCCGGTAATCCGTATTTGGG (site CGGTGGCCTCC) | 0.0062 |
| CTAGTATCATGGACCGGTTTTCCCGGTAATCCGTATTTGAC (site CTCGTCTCTGT) | 0 |
| ACGTTTACATGGACCGGTTTTCCCGGTAATCCGTATTTGCT (site GCGTTTACTAG) | 0.666 |
| CGGAATCCATGGACCGGTTTTCCCGGTAATCCGTATTTGAT (site CGGAATCCTAA) | 0 |
| TGGCCGGCATGGACCGGTTTTCCCGGTAATCCGTATTTGTC (site TGGCCGGCTGA) | 0.815 |
| GTGCTTACATGGACCGGTTTTCCCGGTAATCCGTATTTGTA (site GTGCTTACTTA) | 0.318 |
| TAATTCCCATGGACCGGTTTTCCCGGTAATCCGTATTTGCT (site CAATTCCCTAG) | 0.55 |

| Sequence | recombinant UMI read abundance (log10) |
| --- | --- |
| GCGAAGCCATGGACCGGTTTTCCCGGTAATCCGTATTTGGG (site GCCAAGCCTCC) | 0 |
| TTGCATGCATGGACCGGTTTTCCCGGTAATCCGTATTTGCA (site TTGCATGCTTG) | 0 |
| CCCACCGCATGGACCGGTTTTCCCGGTAATCCGTATTTGCG (site ACCACCGCTCG) | 0.0127 |
| TTTCTAGCATGGACCGGTTTTCCCGGTAATCCGTATTTGAC (site TTTCTAGCTGT) | 0.582 |
| GGCCCTACATGGACCGGTTTTCCCGGTAATCCGTATTTGTG (site GGCCCTACTCA) | 0.33 |
| GACCTTCCATGGACCGGTTTTCCCGGTAATCCGTATTTGGT (site GACCTTCCTAC) | 0.0209 |
| CCCAGATCATGGACCGGTTTTCCCGGTAATCCGTATTTGTC (site CCCAGATCTGA) | 0 |
| GCGGAGCCATGGACCGGTTTTCCCGGTAATCCGTATTTGGG (site GCGAAGCCTCC) | 0.0138 |
| CTCCGTACATGGACCGGTTTTCCCGGTAATCCGTATTTGAG (site CTCCGTACTCT) | 0.509 |
| CGCCTTTCATGGACCGGTTTTCCCGGTAATCCGTATTTGAC (site TGCCTTTCTGT) | 0 |
| GTGGAGGCATGGACCGGTTTTCCCGGTAATCCGTATTTGTG (site GTGGAGGCTGA) | 0.461 |
| TCCACCGCATGGACCGGTTTTCCCGGTAATCCGTATTTGGG (site TCCACCGCTCA) | 0.0369 |
| TACTGCCCATGGACCGGTTTTCCCGGTAATCCGTATTTGGA (site TACTGCCCTTC) | 0.00999 |
| ACTAGAACATGGACCGGTTTTCCCGGTAATCCGTATTTGTG (site ACTAGAACTCG) | 0.285 |
| TGCTCATCATGGACCGGTTTTCCCGGTAATCCGTATTTGCT (site CGATCATCTAG) | 0 |
| CTCGAATCATGGACCGGTTTTCCCGGTAATCCGTATTTGAC (site CTAGTATCTGT) | 0.00618 |
| CAAATCACATGGACCGGTTTTCCCGGTAATCCGTATTTGGG (site CAAGTCACTCC) | 0.00775 |
| TACTTGACATGGACCGGTTTTCCCGGTAATCCGTATTTGCA (site TACTTGACTAG) | 0 |
| TACTTGACATGGACCGGTTTTCCCGGTAATCCGTATTTGCT (site TACTTTACTAG) | 0 |
| TAAGCACCATGGACCGGTTTTCCCGGTAATCCGTATTTGAA (site TAAGCACCTTT) | 0.0176 |
| CAGTGCTCATGGACCGGTTTTCCCGGTAATCCGTATTTGAA (site CAGTGCTCTTT) | 2.48 |
| AGGTCTACATGGACCGGTTTTCCCGGTAATCCGTATTTGAC (site AGGACTACTGT) | 0 |
| TGTACCCCATGGACCGGTTTTCCCGGTAATCCGTATTTGAC (site TGTACGCCTGT) | 0 |
| CCTTGCCCATGGACCGGTTTTCCCGGTAATCCGTATTTGAT (site CCTTGCCCTAT) | 0.00286 |
| CCAGGTGCATGGACCGGTTTTCCCGGTAATCCGTATTTGAC (site CCAGGTGCTCT) | 0.00976 |

| Sequence | recombinant UMI read abundance (log10) |
| --- | --- |
| GGAGTGGCATGGACCGGTTTTCCCGGTAATCCGTATTTGGT (site GTAGTGGCTAC) | 0.294 |
| ATCGAGACATGGACCGGTTTTCCCGGTAATCCGTATTTGGT (site ATGGAGACTAC) | 0.604 |
| CGCAGCACATGGACCGGTTTTCCCGGTAATCCGTATTTGAC (site CGCAGCACTGT) | 2.95 |
| AATGTAACATGGACCGGTTTTCCCGGTAATCCGTATTTGCA (site AATGTAACTTG) | 1.78 |
| CGGGAATCATGGACCGGTTTTCCCGGTAATCCGTATTTGCC (site CGGGATTCTGG) | 0.646 |
| CTAGTATCATGGACCGGTTTTCCCGGTAATCCGTATTTGAC (site GTAGGATCTGT) | 0.00691 |
| TTAGGTGCATGGACCGGTTTTCCCGGTAATCCGTATTTGTG (site TTAGGTGCTCA) | 0.831 |
| CGGGAAGCATGGACCGGTTTTCCCGGTAATCCGTATTTGAT (site CGGGAAGCTAT) | 1.9 |
| CGAGCAGCATGGACCGGTTTTCCCGGTAATCCGTATTTGCT (site CCAGCAGCTAG) | 0.0072 |
| TCAGAGGCATGGACCGGTTTTCCCGGTAATCCGTATTTGCG (site TCAGAGCCTCG) | 0.0967 |
| CCCATATCATGGACCGGTTTTCCCGGTAATCCGTATTTGAC (site CCCATATCTGA) | 0 |
| GCTAAGCCATGGACCGGTTTTCCCGGTAATCCGTATTTGGG (site GCAAAGCCTCC) | 0.00437 |
| GAGTTCGCATGGACCGGTTTTCCCGGTAATCCGTATTTGGA (site GAGTTCGCTTC) | 1.08 |
| TTAGCTGCATGGACCGGTTTTCCCGGTAATCCGTATTTGTG (site CTAGCTGCTCA) | 0.221 |
| CAATTCCCATGGACCGGTTTTCCCGGTAATCCGTATTTGCT (site CAGTTCCCTAG) | 0 |
| TTTGCGGCATGGACCGGTTTTCCCGGTAATCCGTATTTGCT (site TTGGCGGCTAG) | 0.0258 |
| CTAGTATCATGGACCGGTTTTCCCGGTAATCCGTATTTGAC (site CTATTACCTGT) | 0 |
| TACTTGACATGGACCGGTTTTCCCGGTAATCCGTATTTGCT (site AACTTGACTAG) | 0 |
| TTTGCGGCATGGACCGGTTTTCCCGGTAATCCGTATTTGCT (site TTTTCGGCTAG) | 0.00374 |
| CCGGGTCCATGGACCGGTTTTCCCGGTAATCCGTATTTGCA (site CCGGGTCCTTG) | 0.00309 |
| GCTATGGCATGGACCGGTTTTCCCGGTAATCCGTATTTGAA (site GCTATGGCTTT) | 1.55 |
| CGCTCAACATGGACCGGTTTTCCCGGTAATCCGTATTTGCT (site CGATCATCTAG) | 0 |
| TCTAGACCATGGACCGGTTTTCCCGGTAATCCGTATTTGCC (site TCTAGACCTGG) | 0 |
| ATAGCATCATGGACCGGTTTTCCCGGTAATCCGTATTTGAC (site ATAGCATCTGT) | 3.53 |
| TAGTAATCATGGACCGGTTTTCCCGGTAATCCGTATTTGCG (site TAGTAATCTCG) | 2.65 |
